Source: patent US9670227B2, “Thienopyrimidine derivatives, a process for their preparation and pharmaceutical compositions containing them” (LES LABORATOIRES SERVIER, priority 2013, dated 2017)

Biological target: Mcl-1 protein (UniProtKB primary accession number: Q07820) (Homo sapiens, UniProt Q07820)
Experiment: Inhibition of Mcl-1 by fluorescence polarisation, Method 1
Assay type: binding
Conditions: fluorescence polarisation; Method 1, or Method 2; read-out: IC50 (M) Mcl-1 FP
How it was run: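 Binding was measured as fluorescence polarisation of a fluorescein-labelled ligand (1 nM) displaced from Mcl-1 (5 nM), both final. Compounds ran as 11-point series with final DMSO at 5%.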

Chain of Mcl-1 protein (Q07820 whole entry): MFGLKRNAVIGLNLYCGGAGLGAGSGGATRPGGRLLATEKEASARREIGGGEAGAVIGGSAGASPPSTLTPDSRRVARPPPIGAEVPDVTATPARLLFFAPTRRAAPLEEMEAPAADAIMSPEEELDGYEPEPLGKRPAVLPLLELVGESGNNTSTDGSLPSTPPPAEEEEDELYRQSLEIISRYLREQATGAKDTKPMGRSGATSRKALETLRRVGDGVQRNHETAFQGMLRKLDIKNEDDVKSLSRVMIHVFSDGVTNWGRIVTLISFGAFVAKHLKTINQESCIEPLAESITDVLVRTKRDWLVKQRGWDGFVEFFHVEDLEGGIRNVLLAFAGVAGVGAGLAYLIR

SMILES	IC50 [M]
COc1ccccc1CC(Oc1ncnc2sc(-c3ccsc3)c(-c3ccc(O)c(Cl)c3C)c12)C(=O)O [Example 715, (2R)-2-{[(5Sa)-5-(3-chloro-4-hydroxy-2-methylphenyl)-6-(thiophen-3-yl)thieno[2,3-d]pyrimidin-4-yl]oxy}-3-(2-methoxyphenyl)propanoic acid]	1.6e-09
C=Cc1sc2ncnc(OC(Cc3ccccc3)C(=O)O)c2c1-c1cccc(Cl)c1C [Example 721, (2R)-2-{[(5Sa)-5-(3-chloro-2-methylphenyl)-6-ethenylthieno[2,3-d]pyrimidin-4-yl]oxy}-3-phenylpropanoic acid]	7.6e-08
Cc1c(-c2c(-c3ccc(F)cc3)sc3ncnc(O[C@H](Cc4ccccc4OCc4ccnc(-c5ccccc5CO)n4)C(=O)O)c23)ccc(OCCN2CCN(C)CC2)c1Cl [Example 728, (2R)-2-{[(5Sa)-5-{3-chloro-2-methyl-4-[2-(4-methylpiperazin-1-yl)ethoxy]phenyl}-6-(4-fluorophenyl)thieno[2,3-d]pyrimidin-4-yl]oxy}-3-[2-({2-[2-(hydroxymethyl)phenyl]pyrimidin-4-yl}methoxy)phenyl]propanoic acid]	1.18e-09
COc1cnc(C)cc1-c1nccc(COc2ccccc2CC(Oc2ncnc3sc(-c4ccc(F)cc4)c(-c4ccc(OCCN5CCN(C)CC5)c(Cl)c4C)c23)C(=O)O)n1 [Example 734, (2R)-2-{[(5Sa)-5-{3-chloro-2-methyl-4-[2-(4-methylpiperazin-1-yl)ethoxy]phenyl}-6-(4-fluorophenyl)thieno[2,3-d]pyrimidin-4-yl]oxy}-3-(2-{[2-(5-methoxy-2-methylpyridin-4-yl)pyrimidin-4-yl]methoxy}phenyl)propanoic acid]	9.48e-10
Cc1c(-c2c(-c3ccc(F)cc3)sc3ncnc(OC(Cc4ccccc4OCc4ccnn4Cc4ccncc4)C(=O)O)c23)ccc(OCCN2CCN(C)CC2)c1Cl [Example 736, (2R)-2-{[(5Sa)-5-{3-chloro-2-methyl-4-[2-(4-methylpiperazin-1-yl)ethoxy]phenyl}-6-(4-fluorophenyl)thieno[2,3-d]pyrimidin-4-yl]oxy}-3-(2-{[1-(pyridin-4-ylmethyl)-1H-pyrazol-5-yl]methoxy}phenyl)propanoic acid]	2.58e-09
COc1ccccc1-n1ccc(COc2ccccc2CC(Oc2ncnc3sc(-c4ccc(F)cc4)c(-c4ccc(OCCN5CCN(C)CC5)c(Cl)c4C)c23)C(=O)O)n1 [Example 737, (2R)-2-{[(5Sa)-5-{3-chloro-2-methyl-4-[2-(4-methylpiperazin-1-yl)ethoxy]phenyl}-6-(4-fluorophenyl)thieno[2,3-d]pyrimidin-4-yl]oxy}-3-(2-{[1-(2-methoxyphenyl)-1H-pyrazol-3-yl]methoxy}phenyl)propanoic acid]	1.43e-08
COc1ccccc1Cn1ccc(COc2ccccc2CC(Oc2ncnc3sc(-c4ccc(F)cc4)c(-c4ccc(OCCN5CCN(C)CC5)c(Cl)c4C)c23)C(=O)O)n1 [Example 740, (2R)-2-{[(5Sa)-5-{3-chloro-2-methyl-4-[2-(4-methylpiperazin-1-yl)ethoxy]phenyl}-6-(4-fluorophenyl)thieno[2,3-d]pyrimidin-4-yl]oxy}-3-(2-{[1-(2-methoxybenzyl)-1H-pyrazol-3-yl]methoxy}phenyl)propanoic acid]	5.04e-09
Cc1c(-c2c(-c3ccc(F)cc3)sc3ncnc(OC(Cc4ccccc4OCc4ccnc(-c5ccccc5F)n4)C(=O)O)c23)ccc(OCCN(C)C2CC2)c1Cl [Example 748, (2R)-2-{[(5Sa)-5-(3-chloro-4-{2-[cyclopropyl(methyl)amino]ethoxy}-2-methylphenyl)-6-(4-fluorophenyl)thieno[2,3-d]pyrimidin-4-yl]oxy}-3-(2-{[2-(2-fluorophenyl)pyrimidin-4-yl]methoxy}phenyl)propanoic acid]	1.21e-08
